In PubChem BioAssay (NCI):
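Tested at 5 concentrations; 48 h exposure; 96-well plates; endpoints linearly interpolated, else capped at highest concentration. At the TGI there is no net growth.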

How the values were obtained:
Experiment in all cases: NCI anticancer screen, dose series, 48 h
A549 NSCLC = tested on: A549 NSCLC
CCRF-CEM leukemia = tested on: CCRF-CEM leukemia
DLD-1 colon = tested on: DLD-1 colon
HOP-62 NSCLC = tested on: HOP-62 NSCLC
IGROV1 ovarian = tested on: IGROV1 ovarian
KM20L2 colon = tested on: KM20L2 colon
LOX IMVI melanoma = tested on: LOX IMVI melanoma
MDA-MB-231 breast = tested on: MDA-MB-231 breast
NCI/ADR-RES ovarian = tested on: NCI/ADR-RES ovarian
PC-3 prostate = tested on: PC-3 prostate

| Structure (SMILES) | TGI (A549 NSCLC) | TGI (CCRF-CEM leukemia) | TGI (DLD-1 colon) | TGI (HOP-62 NSCLC) | TGI (IGROV1 ovarian) | TGI (KM20L2 colon) | TGI (LOX IMVI melanoma) | TGI (MDA-MB-231 breast) | TGI (NCI/ADR-RES ovarian) | TGI (PC-3 prostate) |
| --- | --- | --- | --- | --- | --- | --- | --- | --- | --- | --- |
| O=NN(CCCl)C(=O)NC1CCC(=O)NC1=O (stereo not given) | 811 µM | 304 µM | 1050 µM | 505 µM | 1140 µM | > 1250 µM | 279 µM | 674 µM | 710 µM | > 1250 µM |
| Cn1nnc2c(C(N)=O)ncn2c1=O | > 100 µM | > 100 µM | > 100 µM | > 100 µM | > 100 µM | > 100 µM | > 100 µM | > 100 µM | > 100 µM | > 100 µM |
| O=[N+]([O-])c1ccc2c(Nc3ccccc3-c3ccccc3Nc3c4ccccc4nc4cc([N+](=O)[O-])ccc34)c3ccccc3nc2c1 | > 56.2 µM | 37.6 µM | > 48.4 µM | 41.4 µM | 36.1 µM | > 65 µM | 47.4 µM | 6.38 µM | 25.7 µM | 6.61 µM |
